We go through 9 molecules from patent US9388165B2, “Isoquinoline-5-carboxamide derivative having inhibitory activity for protein kinase” (HANMI PHARM. CO., LTD., priority 2012, dated 2016).

By IC50 is commonly meant the concentration that gives 50% inhibition.

In one experiment the target is C-Raf (Homo sapiens (Human), UniProt P04049, Y340D/Y341D). Kind of experiment: Inhibitory activity against C-Raf kinase (Invitrogen Kinase Profiling Service). The experiment is classed as biochemical. The method, then: (§1) The compounds prepared in Examples were tested for inhibitory activities against three subtypes of RAF, i.e. RAF1 Y340D Y341D, BRAF normal type and BRAF V600E, using Kinase Profiling Service (Invitrogen) according to the manufacturer's instructions. The levels of the inhibitory activities of the compounds against the enzymes were calculated as % inhibitory activities at various concentrations. Based on the % inhibitory activities, dose-response curves were plotted and IC50 values were calculated using GraphPad Prism software.

The target of the next experiment is PLK2 (Homo sapiens (Human), UniProt Q9NYY3). Kind of experiment: Kinase profiling, % inhibition at 1.0 μM. The experiment is classed as biochemical. Particulars: compound 1.0 μM; read-out: Inhibitory activity at 1.0 μM (%), PLK2. The method, then: [The source words this procedure for another target and says it was used here with some conditions changed.] as §1
The target of a further experiment is PLK3 (Homo sapiens (Human), UniProt Q9H4B4). Description: Kinase profiling, % inhibition at 1.0 μM. The experiment is classed as biochemical. Particulars: compound 1.0 μM; read-out: Inhibitory activity at 1.0 μM (%), PLK3. The method, then:
[The source words this procedure for another target and says it was used here with some conditions changed.] as §1

The target in the next experiment is c-Kit (Homo sapiens (Human), UniProt P10721). Kind of experiment: Kinase profiling, % inhibition at 1.0 μM. The experiment is classed as biochemical. Particulars: compound 1.0 μM; read-out: Inhibitory activity at 1.0 μM (%), c-Kit. The protocol:
[The source words this procedure for another target and says it was used here with some conditions changed.] as §1

For another experiment, the target named is Tie-2 (Homo sapiens (Human), UniProt Q02763). Kind of experiment: Kinase profiling, % inhibition at 1.0 μM. The experiment is classed as biochemical. The note with it: compound 1.0 μM; read-out: Inhibitory activity at 1.0 μM (%), Tie-2. The method, then: [The source words this procedure for another target and says it was used here with some conditions changed.] as §1

The target of another experiment is VEGFR1 (Homo sapiens (Human), UniProt P17948). Kind of experiment: Kinase profiling, % inhibition at 1.0 μM. The experiment is classed as biochemical. Particulars: compound 1.0 μM; read-out: Inhibitory activity at 1.0 μM (%), VEGFR1. The protocol: [The source words this procedure for another target and says it was used here with some conditions changed.] as §1
The next experiment deals with FGFR4 (Homo sapiens (Human), UniProt P22455). Kind of experiment: Kinase profiling, % inhibition at 1.0 μM. The experiment is classed as biochemical. The note with it: compound 1.0 μM; read-out: Inhibitory activity at 1.0 μM (%), FGFR4. The method, then: [The source words this procedure for another target and says it was used here with some conditions changed.] as §1

A further experiment concerns the target Aurora B (Homo sapiens (Human), UniProt Q96GD4). Description: Kinase profiling, % inhibition at 1.0 μM. The experiment is classed as biochemical. The note with it: compound 1.0 μM; read-out: Inhibitory activity at 1.0 μM (%), Aurora B. The protocol: [The source words this procedure for another target and says it was used here with some conditions changed.] as §1

The target in the next experiment is Aurora A (Homo sapiens (Human), UniProt O14965). Kind of experiment: Kinase profiling, % inhibition at 1.0 μM. The experiment is classed as biochemical. Particulars: compound 1.0 μM; read-out: Inhibitory activity at 1.0 μM (%), Aurora A.
The target in another experiment is CDK1 (Homo sapiens (Human), UniProt P06493). Description: Kinase profiling, % inhibition at 1.0 μM. The experiment is classed as biochemical. Particulars: compound 1.0 μM; read-out: Inhibitory activity at 1.0 μM (%), CDK1.
Another experiment addresses CDK2 (Homo sapiens (Human), UniProt P24941). Kind of experiment: Kinase profiling, % inhibition at 1.0 μM. The experiment is classed as biochemical. The note with it: compound 1.0 μM; read-out: Inhibitory activity at 1.0 μM (%), CDK2.
The target of a further experiment is PDGFR-α (Homo sapiens (Human), UniProt P16234). Kind of experiment: Kinase profiling, IC50. The experiment is classed as biochemical. The note with it: read-out: Inhibitory activity (IC50, nM), PDGFR-α. The method, then:
[The source words this procedure for another target and reports this target under the same test.] as §1

The next experiment addresses B-Raf (WT) (Homo sapiens (Human), UniProt P15056). Kind of experiment: Kinase profiling, IC50. The experiment is classed as biochemical. Particulars: read-out: Inhibitory activity (IC50, nM), B-Raf (WT). The protocol:
as §1

For another experiment, the target named is Abl (Homo sapiens (Human), UniProt P00519). Kind of experiment: Kinase profiling, IC50. The experiment is classed as biochemical. The note with it: read-out: Inhibitory activity (IC50, nM), Abl. The protocol: [The source words this procedure for another target and reports this target under the same test.] as §1
In another experiment the target is FLT-3 (Homo sapiens (Human), UniProt P36888). Description: Kinase profiling, IC50. The experiment is classed as biochemical. Particulars: read-out: Inhibitory activity (IC50, nM), FLT-3. The method, then: [The source words this procedure for another target and reports this target under the same test.] as §1
Another experiment concerns the target IGF-1R (Homo sapiens (Human), UniProt P08069). Kind of experiment: Kinase profiling, IC50. The experiment is classed as biochemical. The note with it: read-out: Inhibitory activity (IC50, nM), IGF-1R. The protocol: [The source words this procedure for another target and reports this target under the same test.] as §1
A further experiment has as its target EGFR (Homo sapiens (Human), UniProt P00533). Kind of experiment: Kinase profiling, IC50. Particulars: read-out: Inhibitory activity (IC50, nM), EGFR. The experiment is classed as biochemical. The method, then:
[The source words this procedure for another target and reports this target under the same test.] as §1

Another experiment has as its target Src (Homo sapiens (Human), UniProt P12931). Kind of experiment: Kinase profiling, IC50. The experiment is classed as biochemical. Particulars: read-out: Inhibitory activity (IC50, nM), Src. The method, then: [The source words this procedure for another target and reports this target under the same test.] as §1
The target of a further experiment is VEGFR-2 (Homo sapiens (Human), UniProt P35968). Kind of experiment: Kinase profiling, IC50. The experiment is classed as biochemical. Particulars: read-out: Inhibitory activity (IC50, nM), VEGFR-2. The protocol:
[The source words this procedure for another target and reports this target under the same test.] as §1

The next experiment deals with B-Raf (V600E) (Homo sapiens (Human), UniProt P15056, V600E). Description: Kinase profiling, IC50. The experiment is classed as biochemical. Particulars: read-out: Inhibitory activity (IC50, nM), B-Raf (V600E). The method, then: as §1
A further experiment deals with FGFR-2 (Homo sapiens (Human), UniProt P21802). Description: Kinase profiling, IC50. The experiment is classed as biochemical. The note with it: read-out: Inhibitory activity (IC50, nM), FGFR-2. The protocol: [The source words this procedure for another target and reports this target under the same test.] as §1
Another experiment deals with Her-2 (Homo sapiens (Human), UniProt P04626). Description: Kinase profiling, IC50. The experiment is classed as biochemical. Particulars: read-out: Inhibitory activity (IC50, nM), Her-2. The method, then:
[The source words this procedure for another target and reports this target under the same test.] as §1

A further experiment concerns the target FGFR-1 (Homo sapiens (Human), UniProt P11362). Kind of experiment: Kinase profiling, IC50. The experiment is classed as biochemical. Particulars: read-out: Inhibitory activity (IC50, nM), FGFR-1. The method, then: [The source words this procedure for another target and reports this target under the same test.] as §1
The target in a further experiment is PDGFR-β (Homo sapiens (Human), UniProt P09619). Kind of experiment: Kinase profiling, IC50. The note with it: read-out: Inhibitory activity (IC50, nM), PDGFR-β. The experiment is classed as biochemical. The protocol:
[The source words this procedure for another target and reports this target under the same test.] as §1

The test system of experiment [1] is HepG2 cell lines (hepatoma carcinoma cell). Description: Inhibition on cell proliferation of HepG2 (SRB assay). The experiment is classed as cell-based. The note with it: Homo sapiens, 72 hours treatment, SRB staining, read-out: Inhibitory activities against HepG2 (IC50). The method, then: HepG2 cell lines (ATCC #HB-8065™) were obtained from ATCC (American type culture collection; Rockville, Md.). HepG2 cell lines were incubated in a MEM medium supplemented with 10% FBS (Gibco) and 1% penicillin/streptomycin (Gibco) under 37° C., 5% CO2 and 95% air. The carcinoma cells grown on the growth medium were transferred into a 96-well plate at a density of 5,000 cells/well (HepG2), and cultured for 18 hours or more. The cells were treated with 10 μM˜0.1 nM of the test compounds, and cultured for 72 hours. Subsequently, the cells were fixed with 10% TCA (trichloroacetic acid) and stained with SRB (sulforhodamine B), and absorbance values were measured at 540 nm. Then, IC50 values, i.e., the concentration of a compound to cause 50% reduction in proliferation of cancer cells, were calculated therefrom. The growth rates of cancer cells were calculated by Equation 1 or 2. [(Ti−Tz)/(C−Tz)]×100 (in case Ti>Tz) [Equation 1] [(Ti−Tz)/Tz]×100 (in case Ti<Tz) [Equation 2]
In Equations 1 and 2, ‘Tz’ refers to a the absorbance value measured in the cells just before the application of the test compound. ‘C’ refers to the absorbance value measured in the […], and ‘Ti’ refers to the absorbance value measured in the cells treated with the test compounds.
IC50 value is the concentration of the test compound when the value of Equation 1 is 50, which indicates the concentration of the test compound needed to reduce the growth of cancer cells to 50%. On each measurement, the test compounds were compared with a reference.
For orientation: Sulforhodamine B stains cellular protein and so reports cell mass.

A further experiment deals with PLK1 (Homo sapiens (Human), UniProt P53350). Kind of experiment: Kinase profiling, % inhibition at 1.0 μM. The experiment is classed as biochemical. Particulars: compound 1.0 μM; read-out: Inhibitory activity at 1.0 μM (%), PLK1.

Each structure is given as a SMILES string.

Chain of C-Raf (P04049 whole entry Y340D/Y341D): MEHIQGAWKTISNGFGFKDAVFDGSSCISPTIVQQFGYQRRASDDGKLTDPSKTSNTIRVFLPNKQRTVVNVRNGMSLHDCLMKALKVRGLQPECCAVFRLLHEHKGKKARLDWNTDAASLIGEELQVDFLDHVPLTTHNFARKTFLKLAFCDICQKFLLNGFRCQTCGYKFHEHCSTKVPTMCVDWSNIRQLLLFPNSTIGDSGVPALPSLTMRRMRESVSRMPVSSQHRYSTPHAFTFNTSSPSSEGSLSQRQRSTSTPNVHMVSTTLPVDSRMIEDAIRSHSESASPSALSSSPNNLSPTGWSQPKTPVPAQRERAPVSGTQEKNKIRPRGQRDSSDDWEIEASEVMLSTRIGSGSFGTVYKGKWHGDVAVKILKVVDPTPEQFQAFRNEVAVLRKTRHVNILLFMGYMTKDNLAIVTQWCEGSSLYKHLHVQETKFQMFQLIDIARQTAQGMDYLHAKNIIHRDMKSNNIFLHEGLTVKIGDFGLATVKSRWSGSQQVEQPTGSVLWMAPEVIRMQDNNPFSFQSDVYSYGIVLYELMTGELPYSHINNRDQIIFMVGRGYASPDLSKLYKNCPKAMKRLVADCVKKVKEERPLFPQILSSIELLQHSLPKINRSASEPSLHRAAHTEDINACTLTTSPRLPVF
Chain of Abl (P00519 whole entry): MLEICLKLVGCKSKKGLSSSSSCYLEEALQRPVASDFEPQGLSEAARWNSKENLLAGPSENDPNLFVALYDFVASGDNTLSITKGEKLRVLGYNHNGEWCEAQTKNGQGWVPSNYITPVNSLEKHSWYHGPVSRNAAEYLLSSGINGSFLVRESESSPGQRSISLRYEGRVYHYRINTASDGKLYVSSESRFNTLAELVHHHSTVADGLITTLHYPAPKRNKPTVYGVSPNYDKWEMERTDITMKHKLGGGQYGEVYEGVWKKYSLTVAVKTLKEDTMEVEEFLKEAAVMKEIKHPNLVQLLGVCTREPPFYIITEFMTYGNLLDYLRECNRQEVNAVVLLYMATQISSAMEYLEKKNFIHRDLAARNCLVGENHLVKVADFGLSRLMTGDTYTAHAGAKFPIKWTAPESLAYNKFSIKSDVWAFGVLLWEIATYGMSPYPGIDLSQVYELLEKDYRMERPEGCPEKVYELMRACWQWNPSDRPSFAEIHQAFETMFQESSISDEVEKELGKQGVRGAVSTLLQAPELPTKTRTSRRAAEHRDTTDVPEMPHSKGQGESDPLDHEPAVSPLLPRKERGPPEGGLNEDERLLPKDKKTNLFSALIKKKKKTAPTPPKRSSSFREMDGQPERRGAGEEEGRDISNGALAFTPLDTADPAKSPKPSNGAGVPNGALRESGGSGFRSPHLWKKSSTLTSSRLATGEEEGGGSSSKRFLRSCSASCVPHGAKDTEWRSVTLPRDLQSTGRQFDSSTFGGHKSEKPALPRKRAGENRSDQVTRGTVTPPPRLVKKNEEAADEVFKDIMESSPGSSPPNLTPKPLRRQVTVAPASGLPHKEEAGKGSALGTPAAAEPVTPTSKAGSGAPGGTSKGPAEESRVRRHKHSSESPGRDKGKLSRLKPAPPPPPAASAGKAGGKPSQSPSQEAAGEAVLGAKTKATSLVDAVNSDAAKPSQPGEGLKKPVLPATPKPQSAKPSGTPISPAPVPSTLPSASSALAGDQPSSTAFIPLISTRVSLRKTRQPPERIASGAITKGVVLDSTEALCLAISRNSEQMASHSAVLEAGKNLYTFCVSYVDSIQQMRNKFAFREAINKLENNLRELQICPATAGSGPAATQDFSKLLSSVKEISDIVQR
Chain of PLK1 (P53350 whole entry): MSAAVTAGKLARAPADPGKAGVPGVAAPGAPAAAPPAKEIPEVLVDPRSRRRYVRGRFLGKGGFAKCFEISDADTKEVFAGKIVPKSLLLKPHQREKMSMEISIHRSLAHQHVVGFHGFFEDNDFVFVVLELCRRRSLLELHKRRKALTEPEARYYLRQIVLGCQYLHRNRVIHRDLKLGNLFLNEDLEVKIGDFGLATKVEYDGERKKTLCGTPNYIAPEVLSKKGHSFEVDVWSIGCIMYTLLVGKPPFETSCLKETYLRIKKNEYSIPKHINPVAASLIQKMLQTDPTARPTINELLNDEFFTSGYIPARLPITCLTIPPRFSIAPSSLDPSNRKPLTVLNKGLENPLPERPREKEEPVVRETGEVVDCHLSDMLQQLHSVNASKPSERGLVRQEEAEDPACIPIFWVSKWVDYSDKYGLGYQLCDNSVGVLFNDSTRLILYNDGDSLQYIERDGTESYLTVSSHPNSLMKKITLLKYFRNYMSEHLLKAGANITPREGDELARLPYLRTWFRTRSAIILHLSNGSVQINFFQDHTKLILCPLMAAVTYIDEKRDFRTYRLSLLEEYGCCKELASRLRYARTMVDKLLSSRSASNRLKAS
Chain of FGFR-2 (P21802 22-821): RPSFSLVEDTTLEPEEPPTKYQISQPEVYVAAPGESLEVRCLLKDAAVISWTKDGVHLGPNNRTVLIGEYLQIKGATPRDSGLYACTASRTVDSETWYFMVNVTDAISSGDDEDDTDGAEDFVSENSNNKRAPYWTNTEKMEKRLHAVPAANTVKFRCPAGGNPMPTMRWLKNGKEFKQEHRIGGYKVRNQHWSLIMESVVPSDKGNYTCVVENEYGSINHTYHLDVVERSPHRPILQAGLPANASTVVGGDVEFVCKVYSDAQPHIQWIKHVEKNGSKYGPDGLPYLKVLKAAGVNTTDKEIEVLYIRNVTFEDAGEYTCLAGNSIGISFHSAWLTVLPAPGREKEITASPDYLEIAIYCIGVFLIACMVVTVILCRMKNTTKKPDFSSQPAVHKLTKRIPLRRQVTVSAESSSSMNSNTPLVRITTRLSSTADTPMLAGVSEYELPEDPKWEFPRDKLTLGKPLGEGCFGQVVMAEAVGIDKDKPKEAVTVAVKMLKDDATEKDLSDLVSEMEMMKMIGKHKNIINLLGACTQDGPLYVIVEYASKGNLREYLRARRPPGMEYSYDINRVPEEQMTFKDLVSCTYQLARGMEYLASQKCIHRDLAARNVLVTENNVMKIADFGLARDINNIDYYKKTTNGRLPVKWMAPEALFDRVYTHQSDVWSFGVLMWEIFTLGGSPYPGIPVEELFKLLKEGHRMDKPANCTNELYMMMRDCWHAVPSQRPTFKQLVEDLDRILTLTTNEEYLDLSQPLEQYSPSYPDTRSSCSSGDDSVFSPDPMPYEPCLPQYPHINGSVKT
Chain of FGFR-1 (P11362 22-822): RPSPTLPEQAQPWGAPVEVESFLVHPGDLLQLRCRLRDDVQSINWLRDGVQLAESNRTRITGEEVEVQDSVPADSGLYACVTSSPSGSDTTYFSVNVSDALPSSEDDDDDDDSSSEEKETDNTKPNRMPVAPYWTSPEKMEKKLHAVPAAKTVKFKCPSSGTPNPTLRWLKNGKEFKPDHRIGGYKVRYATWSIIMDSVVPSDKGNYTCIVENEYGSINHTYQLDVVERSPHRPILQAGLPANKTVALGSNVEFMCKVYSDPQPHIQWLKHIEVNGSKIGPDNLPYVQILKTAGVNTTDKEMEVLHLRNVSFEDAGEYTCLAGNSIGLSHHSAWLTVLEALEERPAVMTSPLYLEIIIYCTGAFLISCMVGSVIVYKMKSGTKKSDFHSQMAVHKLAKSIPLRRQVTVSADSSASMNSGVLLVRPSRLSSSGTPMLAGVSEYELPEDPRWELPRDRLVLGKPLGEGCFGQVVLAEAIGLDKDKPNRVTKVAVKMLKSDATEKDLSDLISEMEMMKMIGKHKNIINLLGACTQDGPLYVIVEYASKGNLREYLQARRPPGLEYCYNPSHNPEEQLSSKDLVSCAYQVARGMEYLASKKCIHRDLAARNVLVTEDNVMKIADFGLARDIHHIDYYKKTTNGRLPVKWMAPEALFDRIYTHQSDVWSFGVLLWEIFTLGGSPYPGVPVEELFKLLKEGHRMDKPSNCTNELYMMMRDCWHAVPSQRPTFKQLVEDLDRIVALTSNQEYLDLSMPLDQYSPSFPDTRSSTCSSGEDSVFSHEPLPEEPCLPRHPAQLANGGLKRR
Chain of FGFR4 (P22455 22-802): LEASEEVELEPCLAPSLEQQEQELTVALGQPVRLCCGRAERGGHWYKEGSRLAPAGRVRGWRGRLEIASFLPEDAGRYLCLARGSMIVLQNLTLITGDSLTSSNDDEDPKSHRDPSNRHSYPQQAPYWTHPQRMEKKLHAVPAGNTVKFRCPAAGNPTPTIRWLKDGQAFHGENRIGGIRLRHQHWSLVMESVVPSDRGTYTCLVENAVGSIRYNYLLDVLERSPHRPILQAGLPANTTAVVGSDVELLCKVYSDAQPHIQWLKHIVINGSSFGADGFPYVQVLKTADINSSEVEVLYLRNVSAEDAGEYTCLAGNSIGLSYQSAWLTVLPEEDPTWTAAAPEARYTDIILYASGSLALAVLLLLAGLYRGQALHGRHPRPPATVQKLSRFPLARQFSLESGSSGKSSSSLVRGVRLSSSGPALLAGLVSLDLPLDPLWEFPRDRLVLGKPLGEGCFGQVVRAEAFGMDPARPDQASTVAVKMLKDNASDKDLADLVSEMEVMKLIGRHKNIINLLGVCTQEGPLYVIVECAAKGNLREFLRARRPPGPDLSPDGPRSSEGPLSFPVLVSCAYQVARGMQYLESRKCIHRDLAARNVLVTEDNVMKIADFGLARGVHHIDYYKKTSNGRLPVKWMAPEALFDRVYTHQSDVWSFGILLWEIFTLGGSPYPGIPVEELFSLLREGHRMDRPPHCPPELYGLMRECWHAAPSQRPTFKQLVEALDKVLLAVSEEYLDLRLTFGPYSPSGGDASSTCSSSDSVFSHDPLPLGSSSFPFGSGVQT

`CCN1CCN(Cc2ccc(NC(=O)c3ccc(C)c(NC(=O)c4cccc5c(NC(C)(C)C)nccc45)c3)cc2C(F)(F)F)CC1` [Example 6, 1-(t-butylamino)-N-(5-((4-((4-ethylpiperazin-1-yl)methyl)-3-(trifluoromethyl)phenyl)carbamoyl)-2-methylphenyl)isoquinoline-5-carboxamide] yielded an IC50 against C-Raf of 6.4 nM.

In turn, `Cc1ccc(C(=O)Nc2ccc(Cl)c(C(F)(F)F)c2)cc1NC(=O)c1cccc2c(N)nccc12` [Example 4, 1-amino-N-(5-((4-chloro-3-(trifluoromethyl)phenyl)carbamoyl)-2-methylphenyl)isoquinoline-5-carboxamide] gave an IC50 against C-Raf of 10.7 nM.

Regarding `Cc1cn(-c2cc(NC(=O)c3ccc(C)c(NC(=O)c4cccc5c(N)nccc45)c3)cc(C(F)(F)F)c2)cn1` [Example 11, 1-amino-N-(2-methyl-5-((3-(4-methyl-1H-imidazol-1-yl)-5-(trifluoromethyl)phenyl)carbamoyl)phenyl)isoquinoline-5-carboxamide], on C-Raf, half-maximal inhibition (IC50) required 94.8 nM.

As for `Cc1ccc(NC(=O)Nc2cccc(C(F)(F)F)c2)cc1NC(=O)c1cccc2c(N)nccc12` [Example 14, 1-amino-N-(2-methyl-5-(3-(3-(trifluoromethyl)phenyl)ureido)phenyl)isoquinoline-5-carboxamide], the IC50 on C-Raf came to 108 nM.

In the case of `Cc1ccc(NC(=O)c2cccc(C(F)(F)F)c2)cc1NC(=O)c1cccc2c(N)nccc12` [Example 1, 1-amino-N-(2-methyl-5-(3-(trifluoromethyl)benzamido)phenyl)isoquinoline-5-carboxamide], the inhibition at 1 µM on PLK2 turned out to be 7%; at PLK3, 9%; on c-Kit, 34%; at Tie-2, 20%; at VEGFR1 it was 9%; at FGFR4, 7%. For the same molecule, the inhibition at 1 µM at Aurora B is 23%; on Aurora A it was 62%; at CDK1, 9%; at CDK2 it was 6%; at PLK1 it was -1%. Besides, the IC50 on PDGFR-α is 393 nM; at B-Raf (WT), 87 nM; at Abl it was above 2500 nM; at FLT-3 it was above 2500 nM; on IGF-1R, above 2500 nM; on EGFR, above 2500 nM. In addition, the IC50 at Src is above 2500 nM; on VEGFR-2, 261 nM; at B-Raf (V600E) it was 61 nM; at FGFR-2 it was above 2500 nM; on Her-2, above 2500 nM; on FGFR-1 it was above 2500 nM. The IC50 at PDGFR-β stood at 66 nM; in experiment [1] it was 210 nM; at C-Raf it was 6.1 nM.

Take `Cc1ccc(C(=O)Nc2cccc(C(F)(F)F)c2)cc1NC(=O)c1cccc2c(N)nccc12` [Example 3, 1-amino-N-(2-methyl-5-((3-(trifluoromethyl)phenyl)carbamoyl)phenyl)isoquinoline-5-carboxamide]: the IC50 was 131 nM in experiment [1] and 2.8 nM on C-Raf.

In the case of `Cc1ccc(C(=O)Nc2ccccc2)cc1NC(=O)c1cccc2c(NC(C)(C)C)nccc12` [Example 8, 1-(t-butylamino)-N-(2-methyl-5-(phenylcarbamoyl)phenyl)isoquinoline-5-carboxamide], on C-Raf, the IC50 turned out to be 20.5 nM.

Consider `CCCS(=O)(=O)Nc1ccc(F)c(C(=O)c2c[nH]c3ncc(-c4ccc(Cl)cc4)cc23)c1F` [reference, Vemurafenib, reference compound], for which the IC50 in [1] is above 10000 nM.

For `Cc1ccc(C(=O)Nc2cccc(C(F)(F)F)c2)cc1NC(=O)c1cccc2c(NC(C)(C)C)nccc12` [Example 2, 1-(t-butylamino)-N-(2-methyl-5-((3-(trifluoromethyl)phenyl)carbamoyl)phenyl)isoquinoline-5-carboxamide], the IC50 was 365 nM in experiment [1] and 11 nM against C-Raf.
